Reference: ChEMBL document CHEMBL1201862, “PubChem BioAssay data set” (2004)
Calls of active or inactive are those of the source.

Legend:
[1] = biological target: Adenosylmethionine-8-amino-7-oxononanoate aminotransferase (Mycobacterium tuberculosis, UniProt P9WQ81); experiment: Mycobacterium tuberculosis BioA enzyme inhibitor Measured in Biochemical System Using Plate Reader - 2163-02_Inhibitor_Dose_CherryPick_Activity.; format: functional, Mycobacterium tuberculosis UT205
[2] = biological target: Beta-2 adrenergic receptor (Homo sapiens, UniProt P07550); experiment: beta2AR agonists driving receptor internalization, dose response, cell-based, FAP fluorogen, flow cytometry, cherry pick 1 (AID 588763); format: functional
Sequence of Beta-2 adrenergic receptor (P07550 whole entry): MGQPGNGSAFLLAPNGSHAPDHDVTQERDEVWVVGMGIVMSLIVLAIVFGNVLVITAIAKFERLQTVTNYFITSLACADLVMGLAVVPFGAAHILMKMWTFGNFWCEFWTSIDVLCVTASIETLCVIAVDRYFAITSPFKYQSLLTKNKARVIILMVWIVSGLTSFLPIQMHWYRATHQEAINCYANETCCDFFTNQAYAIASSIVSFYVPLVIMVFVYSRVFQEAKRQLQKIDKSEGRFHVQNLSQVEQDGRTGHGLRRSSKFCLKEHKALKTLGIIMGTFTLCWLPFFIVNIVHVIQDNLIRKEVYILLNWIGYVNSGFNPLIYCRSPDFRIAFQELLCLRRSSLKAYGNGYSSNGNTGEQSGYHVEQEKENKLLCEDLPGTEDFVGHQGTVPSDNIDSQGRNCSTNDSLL

[3] = Luminescence Cell-Based Dose Confirmation HTS to Identify Inhibitors of Platelet Dense Granule Release. [Related pubchem assays: 1663 (Primary HTS), 1678 (Summary of Project)]; format: functional
[4] = biological target: Luciferin 4-monooxygenase (Photinus pyralis, UniProt P08659); experiment: firefly luciferase enzyme inhibitors, dose response, biochemical, luminescence (AID 1891)
Sequence of Luciferin 4-monooxygenase (P08659 whole entry): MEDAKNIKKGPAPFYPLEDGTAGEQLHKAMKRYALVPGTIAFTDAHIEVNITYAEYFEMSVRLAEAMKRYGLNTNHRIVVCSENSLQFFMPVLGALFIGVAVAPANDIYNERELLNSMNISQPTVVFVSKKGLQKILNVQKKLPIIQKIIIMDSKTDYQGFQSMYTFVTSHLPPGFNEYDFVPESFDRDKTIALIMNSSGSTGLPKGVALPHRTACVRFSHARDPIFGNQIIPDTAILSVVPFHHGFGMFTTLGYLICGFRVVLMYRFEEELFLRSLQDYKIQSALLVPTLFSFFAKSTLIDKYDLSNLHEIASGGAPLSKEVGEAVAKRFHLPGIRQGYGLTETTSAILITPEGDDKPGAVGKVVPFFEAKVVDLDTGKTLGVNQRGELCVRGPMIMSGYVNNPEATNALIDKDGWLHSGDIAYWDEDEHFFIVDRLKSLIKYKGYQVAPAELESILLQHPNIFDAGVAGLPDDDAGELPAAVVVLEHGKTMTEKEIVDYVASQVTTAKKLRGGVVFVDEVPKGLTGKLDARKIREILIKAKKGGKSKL

[5] = biological target: Dual specificity protein kinase CLK1 (Homo sapiens, UniProt P49759); experiment: CLK1 kinase inhibitors, off-target check, dose response, selectivity assay for Dyrk1A inhibitor project, biochemical, cherry-picked samples (AID 588811)
HEK293 [6] = experiment: cells; format: functional, cell-based; details: Homo sapiens
Protein Wnt-3a = Protein Wnt-3a (Mus musculus, UniProt P27467); experiment: Wnt3a-driven reporter signaling inhibition, dose response, selectivity assay for Gli-SUFU antagonist project, Wnt-LIGHT cells, luminescence (AID 651570); format: functional; details: read-out: IC50_Mean;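 also: Wnt-LIGHT reporter cells stimulated with conditioned medium from Wnt3a-producing cells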
HEK293 [7] = experiment: NOD1 signaling inhibitors, primary screen, cell-based, luminescence, uHTS (AID 1578); format: functional; details: Homo sapiens
HEK293 [8] = experiment: NOD2 signaling inhibitors in MDP-stimulated cells, cell-based, uHTS, luminescence (AID 2001); format: functional; details: Homo sapiens
HEK293 [9] = experiment: cells; format: functional, cell-based; details: Homo sapiens; remark: listed apart in the source
[10] = biological target: Nucleotide-binding oligomerization domain-containing protein 2 (Homo sapiens, UniProt Q9HC29); experiment: NOD2 signaling inhibitors, cell-based, luminescence, uHTS, HEK293 (AID 1566); format: functional
HEK293 [11] = experiment: cells; format: functional, cell-based; details: Homo sapiens; remark: listed apart in the source
SUMO-activating enzyme [12] = biological target: T1, SUMO-activating enzyme (Homo sapiens, UniProt Q9UBT2); experiment: inhibitors of in vitro SUMOylation cascade, primary screen, biochemical, HTRF, uHTS (AID 2006); format: protein-complex assay
T1 sequence (Q9UBE0 whole entry): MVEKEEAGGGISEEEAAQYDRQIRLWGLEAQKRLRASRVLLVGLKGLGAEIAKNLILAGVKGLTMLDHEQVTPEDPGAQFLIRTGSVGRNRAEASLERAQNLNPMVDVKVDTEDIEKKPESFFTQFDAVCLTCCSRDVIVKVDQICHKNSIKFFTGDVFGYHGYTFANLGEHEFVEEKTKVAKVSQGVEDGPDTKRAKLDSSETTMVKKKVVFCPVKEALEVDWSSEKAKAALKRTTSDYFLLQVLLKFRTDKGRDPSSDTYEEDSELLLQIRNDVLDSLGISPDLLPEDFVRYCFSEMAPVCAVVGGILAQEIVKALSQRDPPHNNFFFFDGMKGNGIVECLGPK
T1 sequence (Q9UBT2 whole entry): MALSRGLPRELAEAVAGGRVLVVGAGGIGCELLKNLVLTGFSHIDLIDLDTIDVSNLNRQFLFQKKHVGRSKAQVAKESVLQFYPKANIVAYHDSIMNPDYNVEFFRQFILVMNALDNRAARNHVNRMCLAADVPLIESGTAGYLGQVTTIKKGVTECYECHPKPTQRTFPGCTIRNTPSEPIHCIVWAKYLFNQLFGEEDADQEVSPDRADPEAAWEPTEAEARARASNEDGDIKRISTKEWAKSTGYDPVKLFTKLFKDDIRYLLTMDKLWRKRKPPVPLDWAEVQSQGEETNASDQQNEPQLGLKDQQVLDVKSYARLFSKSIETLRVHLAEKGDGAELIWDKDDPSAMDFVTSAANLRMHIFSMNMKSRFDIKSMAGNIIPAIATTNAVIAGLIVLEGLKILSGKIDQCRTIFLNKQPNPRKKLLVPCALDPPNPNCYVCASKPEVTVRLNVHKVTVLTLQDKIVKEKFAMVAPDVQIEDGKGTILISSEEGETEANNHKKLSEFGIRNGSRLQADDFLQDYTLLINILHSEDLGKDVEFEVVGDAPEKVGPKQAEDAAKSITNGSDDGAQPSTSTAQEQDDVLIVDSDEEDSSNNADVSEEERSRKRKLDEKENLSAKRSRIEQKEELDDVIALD

[13] = biological target: Dual specificity protein phosphatase 3 (Homo sapiens, UniProt P51452); experiment: VHR phosphatase inhibition, dose response, selectivity assay for STEP inhibitor project, biochemical (AID 602374); format: functional; details: read-out: IC50_Mean
[14] = biological target: T2, Carboxy-terminal domain RNA polymerase II polypeptide A small phosphatase 1 (Homo sapiens, UniProt Q9GZU7); experiment: inhibitors of CTDSP1, concentration-response testing, biochemical assay, absorbance-based, actives from ultra-high-throughput screening (AID 540297); format: functional
T2 sequence (Q9GZU7 whole entry): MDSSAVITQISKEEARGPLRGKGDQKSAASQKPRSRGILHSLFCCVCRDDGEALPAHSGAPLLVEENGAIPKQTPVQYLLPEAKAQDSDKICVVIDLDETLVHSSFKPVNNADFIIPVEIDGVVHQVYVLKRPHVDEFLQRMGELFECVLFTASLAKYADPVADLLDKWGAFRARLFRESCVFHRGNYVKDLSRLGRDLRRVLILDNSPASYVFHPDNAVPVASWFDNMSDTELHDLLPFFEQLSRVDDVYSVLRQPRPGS

SUMO-activating enzyme [15] = biological target: T1, SUMO-activating enzyme; experiment: SUMOylation inhibitor hit validation, confirmation, SUMOylation inhibitor project, biochemical, AlphaScreen (AID 2018); format: functional
[16] = biological target: Polyadenylate-binding protein 1 (Homo sapiens, UniProt P11940); experiment: PABP poly(A) RNA binding inhibitors, primary screen, biochemical, fluorescence polarization, uHTS (AID 2014)
[17] = biological target: Eukaryotic translation initiation factor 4H (Homo sapiens, UniProt Q15056); experiment: human eIF4H binding inhibitors, primary screen, translation initiation inhibitor project, biochemical, uHTS, fluorescence polarization (AID 2012)
[18] = biological target: Tyrosine-protein phosphatase non-receptor type 11 (Homo sapiens, UniProt Q06124); experiment: SHP2 phosphatase inhibition, dose response, selectivity assay for STEP inhibitor project, biochemical (AID 602367); format: functional; details: read-out: IC50_Mean
H9c2 = experiment: cells; format: functional, cell-based; details: Rattus norvegicus, H9c2, Myocardium;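 also: confirmatory concentration-response retest of ultra-high-throughput screening hits for modulation of myocardial damage; cell death induced by hydrogen peroxide oxidative stress; compound pretreatment for 60 min then peroxide exposure for 2 h; potency is for protecting the cells against peroxide damage rather than for killing them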
[19] = biological target: Tyrosine-protein phosphatase non-receptor type 5 (Homo sapiens, UniProt P54829); experiment: STEP phosphatase inhibitors, confirmation, biochemical, fluorescence intensity, uHTS hits (AID 602372); format: functional; details: read-out: IC50_Mean
Sequence of Tyrosine-protein phosphatase non-receptor type 5 (P54829 whole entry): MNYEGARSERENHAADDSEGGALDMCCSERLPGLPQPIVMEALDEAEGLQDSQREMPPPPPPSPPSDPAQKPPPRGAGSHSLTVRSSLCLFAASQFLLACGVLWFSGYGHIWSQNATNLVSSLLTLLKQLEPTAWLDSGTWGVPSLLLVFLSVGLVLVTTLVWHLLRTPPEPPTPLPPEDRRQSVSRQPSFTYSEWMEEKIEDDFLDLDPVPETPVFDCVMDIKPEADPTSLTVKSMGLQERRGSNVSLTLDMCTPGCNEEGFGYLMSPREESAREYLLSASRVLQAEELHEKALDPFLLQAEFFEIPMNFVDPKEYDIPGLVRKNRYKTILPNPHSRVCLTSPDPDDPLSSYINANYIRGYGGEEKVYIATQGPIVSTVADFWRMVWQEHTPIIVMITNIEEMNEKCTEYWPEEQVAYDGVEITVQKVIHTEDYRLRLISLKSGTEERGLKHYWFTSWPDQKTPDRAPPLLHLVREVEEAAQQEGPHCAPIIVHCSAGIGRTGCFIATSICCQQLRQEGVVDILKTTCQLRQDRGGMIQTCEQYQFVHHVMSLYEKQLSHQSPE

[20] = biological target: T3, Sentrin-specific protease 6 (Homo sapiens, UniProt Q9GZR1); experiment: SAR Analysis of small molecule inhibitors of Sentrin-specific protease 6 (SENP6) using a Luminescent assay. [Related pubchem assays (depositor defined):AID2582, AID2599]; format: functional
T3 sequence (Q9GZR1 whole entry): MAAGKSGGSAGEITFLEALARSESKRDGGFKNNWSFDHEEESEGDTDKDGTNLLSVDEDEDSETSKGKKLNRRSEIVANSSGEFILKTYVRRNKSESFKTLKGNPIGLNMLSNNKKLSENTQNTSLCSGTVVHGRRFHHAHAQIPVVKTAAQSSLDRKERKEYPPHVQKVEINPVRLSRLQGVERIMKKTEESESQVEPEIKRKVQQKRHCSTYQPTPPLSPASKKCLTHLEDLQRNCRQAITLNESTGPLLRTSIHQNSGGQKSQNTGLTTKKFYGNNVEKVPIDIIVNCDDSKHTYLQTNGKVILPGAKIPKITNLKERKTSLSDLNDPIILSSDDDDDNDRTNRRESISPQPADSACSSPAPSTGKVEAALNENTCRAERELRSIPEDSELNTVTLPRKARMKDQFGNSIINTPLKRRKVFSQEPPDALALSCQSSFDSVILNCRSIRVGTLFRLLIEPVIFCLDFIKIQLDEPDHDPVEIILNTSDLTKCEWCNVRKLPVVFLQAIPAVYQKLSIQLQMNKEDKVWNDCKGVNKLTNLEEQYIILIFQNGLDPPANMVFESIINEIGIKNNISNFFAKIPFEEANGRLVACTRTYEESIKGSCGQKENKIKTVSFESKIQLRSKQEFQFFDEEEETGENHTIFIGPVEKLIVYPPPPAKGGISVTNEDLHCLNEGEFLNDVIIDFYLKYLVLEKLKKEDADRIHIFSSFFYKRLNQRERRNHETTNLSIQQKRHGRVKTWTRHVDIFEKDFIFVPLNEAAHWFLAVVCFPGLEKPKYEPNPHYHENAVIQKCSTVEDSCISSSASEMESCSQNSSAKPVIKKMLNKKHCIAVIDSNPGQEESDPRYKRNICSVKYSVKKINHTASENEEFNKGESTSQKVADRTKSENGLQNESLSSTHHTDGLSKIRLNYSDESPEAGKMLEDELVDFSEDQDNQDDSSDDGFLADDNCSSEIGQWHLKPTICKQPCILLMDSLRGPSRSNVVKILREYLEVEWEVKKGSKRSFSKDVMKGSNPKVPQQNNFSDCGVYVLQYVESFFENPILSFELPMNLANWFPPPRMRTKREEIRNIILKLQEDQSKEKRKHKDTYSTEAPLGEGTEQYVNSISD

Caspase-3 = biological target: T4, Caspase-3 (Homo sapiens, UniProt P42574); experiment: SAR Analysis of small molecule inhibitors of Sentrin-specific proteases (SENPs) using a Caspase-3 Selectivity assay. [Related pubchem assays (depositor defined):AID2540, AID2599, AID434973, AID489001]; format: functional
T4 sequence (P42574 whole entry): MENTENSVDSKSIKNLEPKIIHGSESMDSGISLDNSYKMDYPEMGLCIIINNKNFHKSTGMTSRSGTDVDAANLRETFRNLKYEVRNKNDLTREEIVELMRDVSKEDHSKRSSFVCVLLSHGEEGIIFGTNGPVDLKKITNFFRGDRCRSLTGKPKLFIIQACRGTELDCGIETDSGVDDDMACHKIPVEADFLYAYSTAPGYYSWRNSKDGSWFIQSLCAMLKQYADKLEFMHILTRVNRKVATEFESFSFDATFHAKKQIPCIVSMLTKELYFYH

[21] = biological target: T5, Sentrin-specific protease 8 (Homo sapiens, UniProt Q96LD8); experiment: SENP8 protease inhibitors, SAR follow-up, biochemical, luminescence (AID 504501); format: functional
T5 sequence (Q96LD8 whole entry): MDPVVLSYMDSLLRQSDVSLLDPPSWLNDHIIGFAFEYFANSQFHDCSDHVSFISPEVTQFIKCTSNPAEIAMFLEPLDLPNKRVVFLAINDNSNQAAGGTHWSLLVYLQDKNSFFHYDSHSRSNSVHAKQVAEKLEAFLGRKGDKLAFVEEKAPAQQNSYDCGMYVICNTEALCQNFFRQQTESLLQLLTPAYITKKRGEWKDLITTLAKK

[22] = biological target: Ras and Rab interactor 1/Tyrosine-protein kinase ABL1 (Homo sapiens, UniProt P00519+Q13671); format: functional;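 also: biochemical TR-FRET dose-response test measuring inhibition of binding between Rin1 and Abl proteins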
Sequence of Ras and Rab interactor 1/Tyrosine-protein kinase ABL1 (P00519 whole entry): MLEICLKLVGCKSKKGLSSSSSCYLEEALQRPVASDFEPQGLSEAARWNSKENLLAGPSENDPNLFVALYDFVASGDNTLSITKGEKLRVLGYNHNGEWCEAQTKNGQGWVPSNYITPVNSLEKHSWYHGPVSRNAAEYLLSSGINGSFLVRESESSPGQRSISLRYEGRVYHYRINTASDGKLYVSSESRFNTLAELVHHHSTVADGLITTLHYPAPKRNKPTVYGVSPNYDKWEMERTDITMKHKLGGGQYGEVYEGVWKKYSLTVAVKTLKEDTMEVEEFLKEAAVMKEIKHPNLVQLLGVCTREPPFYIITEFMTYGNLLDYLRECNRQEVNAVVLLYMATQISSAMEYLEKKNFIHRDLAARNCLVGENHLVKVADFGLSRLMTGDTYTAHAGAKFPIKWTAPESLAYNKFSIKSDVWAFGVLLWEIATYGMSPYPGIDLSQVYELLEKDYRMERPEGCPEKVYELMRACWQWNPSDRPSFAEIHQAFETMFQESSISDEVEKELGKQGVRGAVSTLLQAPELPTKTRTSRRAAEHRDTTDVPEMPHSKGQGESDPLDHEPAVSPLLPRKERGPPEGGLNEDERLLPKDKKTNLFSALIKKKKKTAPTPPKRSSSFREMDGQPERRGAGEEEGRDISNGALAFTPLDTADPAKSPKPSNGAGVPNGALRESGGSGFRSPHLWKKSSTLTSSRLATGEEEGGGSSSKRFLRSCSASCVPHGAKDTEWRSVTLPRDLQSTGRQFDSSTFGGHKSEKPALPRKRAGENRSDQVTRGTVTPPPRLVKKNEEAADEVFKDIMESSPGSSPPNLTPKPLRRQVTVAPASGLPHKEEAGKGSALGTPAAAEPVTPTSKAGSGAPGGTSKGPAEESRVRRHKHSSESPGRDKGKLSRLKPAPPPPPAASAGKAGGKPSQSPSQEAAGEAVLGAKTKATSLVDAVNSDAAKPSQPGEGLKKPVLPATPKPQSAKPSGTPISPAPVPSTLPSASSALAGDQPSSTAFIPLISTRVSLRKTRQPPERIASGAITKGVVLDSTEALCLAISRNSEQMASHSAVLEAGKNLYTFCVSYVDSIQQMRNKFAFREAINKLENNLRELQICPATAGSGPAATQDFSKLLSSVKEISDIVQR
Sequence of Ras and Rab interactor 1/Tyrosine-protein kinase ABL1 (Q13671 whole entry): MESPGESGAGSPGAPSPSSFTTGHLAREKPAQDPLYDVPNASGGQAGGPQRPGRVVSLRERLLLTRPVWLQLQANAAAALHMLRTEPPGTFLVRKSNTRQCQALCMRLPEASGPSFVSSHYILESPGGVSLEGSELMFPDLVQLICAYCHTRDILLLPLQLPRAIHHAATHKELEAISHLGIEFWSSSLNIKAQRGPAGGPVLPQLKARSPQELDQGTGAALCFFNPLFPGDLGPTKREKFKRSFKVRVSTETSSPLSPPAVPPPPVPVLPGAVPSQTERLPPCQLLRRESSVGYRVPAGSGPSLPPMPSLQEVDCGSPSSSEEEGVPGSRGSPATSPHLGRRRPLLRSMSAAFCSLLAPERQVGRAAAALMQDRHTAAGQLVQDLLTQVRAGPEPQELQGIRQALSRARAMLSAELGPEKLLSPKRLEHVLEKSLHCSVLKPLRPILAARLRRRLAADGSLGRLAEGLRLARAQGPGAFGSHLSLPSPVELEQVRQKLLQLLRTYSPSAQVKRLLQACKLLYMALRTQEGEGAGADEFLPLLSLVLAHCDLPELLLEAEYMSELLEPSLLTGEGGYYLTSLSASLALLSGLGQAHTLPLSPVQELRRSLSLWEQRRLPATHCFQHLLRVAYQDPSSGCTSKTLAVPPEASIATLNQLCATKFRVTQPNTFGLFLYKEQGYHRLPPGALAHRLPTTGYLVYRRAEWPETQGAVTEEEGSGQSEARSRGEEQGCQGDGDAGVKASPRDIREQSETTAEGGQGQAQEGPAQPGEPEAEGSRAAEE

Sequence of Adenosylmethionine-8-amino-7-oxononanoate aminotransferase (P9WQ81 whole entry): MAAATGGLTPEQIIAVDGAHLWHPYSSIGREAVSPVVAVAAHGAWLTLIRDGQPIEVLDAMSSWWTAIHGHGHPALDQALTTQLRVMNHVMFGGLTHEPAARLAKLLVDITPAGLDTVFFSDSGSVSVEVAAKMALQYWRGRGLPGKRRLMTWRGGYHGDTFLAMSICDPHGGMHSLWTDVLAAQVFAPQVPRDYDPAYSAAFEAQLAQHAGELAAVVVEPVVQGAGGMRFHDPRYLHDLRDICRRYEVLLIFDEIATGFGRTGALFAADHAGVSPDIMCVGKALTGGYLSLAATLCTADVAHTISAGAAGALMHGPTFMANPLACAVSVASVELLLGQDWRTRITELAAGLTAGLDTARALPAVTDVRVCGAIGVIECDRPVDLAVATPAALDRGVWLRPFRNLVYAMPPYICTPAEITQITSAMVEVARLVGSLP

Which AC50 [1] does the source give for `CCNC(=O)[C@@H]1[C@@H](CO)[C@@H]2Cn3c(ccc(-c4cccnc4)c3=O)[C@@H]2N1Cc1ccc2c(c1)OCO2` here?
Its AC50 is 9.24 µM (active).

Which EC50 [2] does the source give for `COc1cc(OC)nc(NC(=O)CSc2nnc(-c3ccccc3)n2C2CCCCC2)n1` here?
The EC50 was 1.05 µM (active).

And the EC50 [3]?
Its EC50 is > 112 µM (not active).

What about the EC50 [4] of the same molecule?
Its EC50 is > 112 µM (not active).

With `Cc1nc(CNc2ncnc3ccc(-c4ccoc4)cc23)cs1` as the molecule, how does the AC50 [5] read?
The AC50 was 0.0311 µM (active).

Which results are given for `Cc1nc2cc(N3CCN(C)CC3)c(NC(=O)Cc3ccccc3)cc2c(=O)n1Cc1ccccc1`?
IC50 (HEK293 [6]): > 20 µM (inactive); IC50 (Protein Wnt-3a): 37.5 µM (inactive); EC50 (HEK293 [7]): > 20 µM (inactive); IC50 (HEK293 [8]): > 20 µM (inactive); IC50 (HEK293 [9]): > 20 µM (inactive); EC50 [10]: 9.39 µM (active); IC50 (HEK293 [11]): 8.5 µM (active)

With `COc1cc(/C=N/NC(=O)c2ccccc2O)ccc1OCC(=O)Nc1ccccc1` as the molecule, how does the IC50 (SUMO-activating enzyme [12]) read?
Its IC50 is 8.71 µM (active).

And the IC50 [13]?
The IC50 was 4.1 µM (active).

And the IC50 [14]?
Its IC50 is 5.46 µM (active).

And the IC50 (SUMO-activating enzyme [15])?
The IC50 was 16.4 µM (active).

And the IC50 [16]?
Its IC50 is > 100 µM (inactive).

What about the IC50 [17] of the same molecule?
Its IC50 is 15.4 µM (active).

And the IC50 [18]?
Its IC50 is 1.25 µM (active).

What about the IC50 (H9c2) of the same molecule?
The IC50 was > 79 µM (inactive).

And the IC50 [19]?
The IC50 was 26.2 µM (inactive).

With `Cn1c(=O)c2c(nc(OCc3cccnc3)n2Cc2ccccc2)n(C)c1=O` as the molecule, how does the AC50 [1] read?
The AC50 was 1 µM (active).

What does the source list for `COc1ccccc1OCc1ccc(C(=O)Nc2ccccc2F)cc1`?
IC50 [20]: > 99 µM (inactive); IC50 (Caspase-3): 8.88 µM (active); IC50 [21]: > 99 µM (inactive)

For `CC(=O)Nc1ccc(NC(=O)C2CCN(C(=O)c3cccs3)CC2)cc1`, which IC50 [22] is on record?
Its IC50 is 1.9 µM (active).
